Values after ≈ are worked out from the molar mass of the structure shown. Active and inactive are the calls of the source. The calls are words filed in the database; no cut-off is given here.
Legend:
Streptococcus pneumoniae [1] = assay: Antimicrobial activity against Streptococcus pneumoniae spain 23F-1; format: functional
Streptococcus sp. [2] = assay: Antimicrobial activity against Streptococcus sp. 782/96; format: functional
Streptococcus sp. [3] = assay: Antimicrobial activity against Streptococcus sp.11923/96; format: functional
Streptococcus sp. [4] = assay: Bactericidal effect on Streptococcus sp.11923/96 at 10 uM; format: functional, organism-based
Streptococcus pneumoniae [5] = assay: Antimicrobial activity against Streptococcus pneumoniae ATCC 6303; format: functional
Streptococcus sp. [6] = assay: Bactericidal effect on Streptococcus sp. 782/96 at 10 uM; format: functional, organism-based
Streptococcus mitis = assay: Antimicrobial activity against Streptococcus mitis NCTC 12161; format: functional
Streptococcus oralis = assay: Antimicrobial activity against Streptococcus oralis NCTC 11427
Streptococcus pyogenes = assay: Antimicrobial activity against Streptococcus pyogens CECT 985
Streptococcus pneumoniae [7] = assay: Induction of autolysin LytA in Streptococcus pneumoniae M32 assessed as log reduction in bacterial count at 25 uM after 15 mins; format: functional
Streptococcus pneumoniae [8] = assay: Antimicrobial activity against Streptococcus pneumoniae 8249; format: functional
Streptococcus pneumoniae [9] = assay: Induction of autolysin LytA Streptococcus pneumoniae M32 assessed as log reduction in bacterial count at 25 uM after 3 hrs; format: functional
Streptococcus agalactiae = assay: Antimicrobial activity against Streptococcus agalactiae CECT 183; format: functional
Streptococcus pneumoniae [10] = assay: Antimicrobial activity against Streptococcus pneumoniae M32; format: functional
Streptococcus pneumoniae [11] = assay: Lytic effect on Streptococcus pneumoniae M32 in presence of 10 ug/ml LytA amidase; format: functional, organism-based
[12] = system: Streptococcus pseudopneumoniae; assay: Bactericidal effect on Streptococcus pseudopneumoniae at 10 uM; format: functional
Enterococcus faecalis = assay: Antimicrobial activity against Enterococcus faecalis; format: functional
Streptococcus pneumoniae [13] = assay: Antimicrobial activity against Streptococcus pneumoniae R6; format: functional
Streptococcus mutans = assay: Antimicrobial activity against Streptococcus mutans CECT 479; format: functional

## O=C(N[C@H](CO)[C@H](O)c1ccc([N+](=O)[O-])cc1)C(Cl)Cl [CHLORAMPHENICOL]
Streptococcus pneumoniae [1]
  MIC: > 8 µg/mL

## CC[C@H]1OC(=O)[C@H](C)[C@@H](O[C@H]2C[C@@](C)(OC)[C@@H](O)[C@H](C)O2)[C@H](C)[C@@H](O[C@@H]2O[C@H](C)C[C@H](N(C)C)[C@H]2O)[C@](C)(O)C[C@@H](C)C(=O)[C@H](C)[C@@H](O)[C@]1(C)O [ERYTHROMYCIN]
Streptococcus sp. [2]
  MIC: > 128 µg/mL
Streptococcus sp. [3]
  MIC: 4 µg/mL (≈ 5.45 µM)

## CCCCCCCCCCCCCCCCOP(=O)([O-])OCC[N+](C)(C)C [MILTEFOSINE]
Streptococcus sp. [4]
  Activity: Active
Streptococcus pneumoniae [5]
  MIC: 6.25 µM (≈ 2.55 µg/mL)
Streptococcus sp. [6]
  Activity: Active
Streptococcus mitis
  MIC: 10 µM (≈ 4.08 µg/mL)
Streptococcus oralis
  MIC: 10 µM (≈ 4.08 µg/mL)
Streptococcus pyogenes
  MIC: 10 µM (≈ 4.08 µg/mL)
Streptococcus pneumoniae [7]
  Activity: 2
Streptococcus pneumoniae [8]
  MIC: 6.25 µM (≈ 2.55 µg/mL)
Streptococcus pneumoniae [9]
  Activity: 4
Streptococcus agalactiae
  MIC: 20 µM (≈ 8.15 µg/mL)
Streptococcus pneumoniae [1]
  MIC: 6.25 µM
Streptococcus pneumoniae [10]
  MIC: 5 µM (≈ 2.04 µg/mL)
Streptococcus pneumoniae [11]
  Activity: Active
[12]
  Activity: Active
Enterococcus faecalis
  MIC: 20 µM (≈ 8.15 µg/mL)
Streptococcus pneumoniae [13]
  MIC: 5 µM (≈ 2.04 µg/mL)
Streptococcus mutans
  MIC: 20 µM (≈ 8.15 µg/mL)

## CN(C)[C@@H]1C(O)=C(C(N)=O)C(=O)[C@@]2(O)C(O)=C3C(=O)c4c(O)cccc4[C@@](C)(O)[C@H]3C[C@@H]12 [TETRACYCLINE]
Streptococcus pneumoniae [1]
  MIC: 8 µg/mL
Streptococcus sp. [2]
  MIC: 128 µg/mL (≈ 288 µM)
Streptococcus sp. [3]
  MIC: 0.5 µg/mL (≈ 1.13 µM)
